In patent US7855194B2, “Pyrimidine, quinazoline, pteridine and triazine derivatives” (Hoffmann-La Roche Inc., priority 2006, dated 2010) one finds Ki data, which are given here for three compounds.

The target in the assay is T1, human subtype 5 somatostatin receptor (Homo sapiens, UniProt P35346).
T1 construct: host or cells: CHO cells, stably transfected; membranes prepared from them
T1 sequence (P35346 whole entry): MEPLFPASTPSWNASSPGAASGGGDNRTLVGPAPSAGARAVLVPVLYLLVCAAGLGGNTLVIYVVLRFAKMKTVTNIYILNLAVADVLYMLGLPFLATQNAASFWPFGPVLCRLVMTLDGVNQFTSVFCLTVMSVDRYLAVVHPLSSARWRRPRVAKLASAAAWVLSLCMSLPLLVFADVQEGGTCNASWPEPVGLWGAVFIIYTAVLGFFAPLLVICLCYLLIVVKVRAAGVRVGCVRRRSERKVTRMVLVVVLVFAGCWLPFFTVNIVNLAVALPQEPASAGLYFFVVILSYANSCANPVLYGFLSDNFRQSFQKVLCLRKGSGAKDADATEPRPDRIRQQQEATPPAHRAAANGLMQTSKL
Kind of assay: SSTR5 radioligand binding assay (125I-labeled 11-Tyr somatostatin-14 tracer, membranes of transfected CHO cells). The following applies: CHO cell membranes, Ki calculated from IC50 by Cheng-Prussoff equation. The method, then:
A CHO cell line stably transfected with a plasmid encoding the human subtype 5 somatostatin receptor (GenBank accession number D16827) was obtained from Euroscreen. Cells were cultured and used for binding and functional assays.
Membranes of these cells were prepared by sonication in the presence of protease inhibitors and subsequent fractionating centrifugation. The protein concentration in the membrane preparation was determined using a commercial kit (BCA kit, Pierce, USA). Membranes were stored at −80° C. until use. After thawing, membranes were diluted in assay buffer (50 mM Tris-HCl at pH 7.4, 5 mM MgCl2 and 0.20% BSA) and subjected to dounce homogenization.
For binding studies, 0.1 mL membrane suspension, corresponding to app. 6×10^−15 mol receptor, was incubated for 1 h at room temperature with 0.05 nM ^125I-labeled tracer (11-Tyr somatostatin-14, Perkin-Elmer) and either test compounds in varying concentrations or, for the determination of non-specific binding, 0.001 mM non-labeled somatostatin-14. The incubation was stopped by filtration through GF/B glassfiber filters and washing with ice-cold wash buffer (50 mM Tris-HCl at pH 7.4). The bound radioactivity was measured after application of a scintillation cocktail (Microscint 40) and expressed as disintegrations per minute (dpm).
The receptor concentration was determined in a prior saturation experiment where a fixed, arbitrary amount of membranes was incubated with a concentration range of radio-labeled tracer. This allows estimating the total number of specific binding sites per amount of protein (i.e., Bmax), typically between 1 and 5 pmol/mg.
The concentration of the test compound required to result in half maximal inhibition of binding of the radio-labeled tracer (IC50) was estimated from a concentration-versus-dpm graph. The binding affinity (Ki) was calculated from the IC50 by applying the Cheng-Prussoff equation for single binding sites.
For the compound `CCOc1cc(CN2CCC(Nc3nc(N)c4cc(C)ccc4n3)CC2)ccc1OC` [Example 8, N^2-[1-(3-Ethoxy-4-methoxy-benzyl)-piperidin-4-yl]-6-methyl-quinazoline-2,4-diamine], the Ki (as a rule, the dissociation constant of the complex between target and ligand, obtained from inhibition or displacement) was 490 nM. The figure for `CCOc1cc(CN2CCC(Nc3ncc(C#N)c(N)n3)CC2)cc(OCOC)c1I` [Example 137, 4-amino-2-[1-(3-ethoxy-4-iodo-5-methoxymethoxy-benzyl)-piperidin-4-ylamino]-pyrimidine-5-carbonitrile] is 6.4 nM; for `CCOc1cc(CN2CCC(Nc3ncc(-c4ccc(OC)cc4)cn3)CC2)ccc1Cl` [Example 161, [1-(4-chloro-3-ethoxy-benzyl)-piperidin-4-yl]-[5-(4-methoxy-phenyl)-pyrimidin-2-yl]-amine] it is 31 nM.
